Holding throughout (format): biochemical
Test [1] concerns the target T1, α-L-Fucosidase (bovine kidney) (Bos taurus, UniProt Q2KIM0).
T1 construct: purchased Sigma-Aldrich Co; host or cells: bovine kidney
T1 sequence (Q2KIM0 23-468): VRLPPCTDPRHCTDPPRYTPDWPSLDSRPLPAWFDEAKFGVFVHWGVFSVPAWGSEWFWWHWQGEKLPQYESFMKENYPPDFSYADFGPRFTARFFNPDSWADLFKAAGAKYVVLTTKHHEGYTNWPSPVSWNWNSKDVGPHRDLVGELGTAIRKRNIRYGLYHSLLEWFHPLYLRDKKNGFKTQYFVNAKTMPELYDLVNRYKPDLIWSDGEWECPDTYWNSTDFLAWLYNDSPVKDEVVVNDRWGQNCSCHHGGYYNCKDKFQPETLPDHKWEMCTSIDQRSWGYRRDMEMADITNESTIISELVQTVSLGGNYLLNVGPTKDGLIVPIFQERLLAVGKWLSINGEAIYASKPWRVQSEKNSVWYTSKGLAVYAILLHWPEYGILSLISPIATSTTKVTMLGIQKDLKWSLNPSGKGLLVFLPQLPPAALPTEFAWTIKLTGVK
Description: Glycosidase inhibition: α-L-fucosidase (bovine kidney). The following applies: read-out: inhibition % at 1000 μM. An excerpt:
(§1) The enzymes α-glucosidase (from yeast, rice), β-glucosidase (from almonds, bovine liver), α-galactosidase (from coffee beans), β-galactosidase (from bovine liver), α-mannosidase (from jack beans), β-mannosidase (from snails), α-L-fucosidase (from bovine kidney), α-L-rhamnosidase (from Penicillium decumbens), β-glucuronidases (from Escherichia coli), α,α-trehalase (from porcine kidney), amyloglucosidase (from Aspergillus niger), p-nitrophenyl glycosides, and various disaccharides were purchased from Sigma-Aldrich Co. Brush border membranes were prepared from the rat small intestine according to the method of Kessler et al., and were assayed at pH 6.8 for rat intestinal maltase using maltose. For rat intestinal glucosidases and porcine kidney trehalase activities, the reaction mixture (0.2 mL) contained 25 mM substrate and the appropriate amount of enzyme, and the incubations were performed for 10 min at 37 °C. The reaction was stopped by heating at 100 °C for 3 min. After centrifugation (600 g; 10 min), 0.035 mL of the resulting reaction mixture were added to 2.1 mL of the Glucose CII-test Wako (Wako Pure Chemical Ind., Osaka, Japan). The absorbance at 505 nm was measured to determine the amount of the released D-glucose. Other glycosidase activities were determined using an appropriate p-nitrophenyl glycoside as substrate at the optimum pH of each enzyme. The reaction mixture (0.2 mL) contained 2 mM of the substrate and the appropriate amount of enzyme. The reaction was stopped by adding 0.4 mL of 400 mM Na2CO3. The released p-nitrophenol was measured spectrometrically at 400 nm.

The target in test [2] is T2, β-Glucosidase (bovine liver) (Bos taurus, UniProt F1MNT6).
T2 sequence (F1MNT6 1-469): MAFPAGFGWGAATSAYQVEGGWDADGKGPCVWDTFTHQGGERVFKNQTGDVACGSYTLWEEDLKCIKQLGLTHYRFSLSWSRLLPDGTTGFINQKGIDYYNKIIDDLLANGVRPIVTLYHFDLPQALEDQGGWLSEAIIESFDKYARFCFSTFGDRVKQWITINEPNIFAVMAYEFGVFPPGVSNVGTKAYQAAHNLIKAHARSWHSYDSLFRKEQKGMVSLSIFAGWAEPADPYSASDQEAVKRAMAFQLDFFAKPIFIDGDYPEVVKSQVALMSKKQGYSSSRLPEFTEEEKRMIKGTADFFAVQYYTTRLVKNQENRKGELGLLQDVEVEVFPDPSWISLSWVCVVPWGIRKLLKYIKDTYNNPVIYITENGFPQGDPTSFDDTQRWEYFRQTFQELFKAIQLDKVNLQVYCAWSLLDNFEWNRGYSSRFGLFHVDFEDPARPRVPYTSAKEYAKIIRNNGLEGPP
Description: Glycosidase inhibition: β-glucosidase (bovine liver).
Text: as §1, with “After centrifugation (600 g; 10 min), 0.035 mL of the resulting reaction mixture were added to 2.1 mL of the Glucose CII-test Wako (Wako Pure Chemical Ind., Osaka, Japan).” left out, “The reaction mixture (0.2 mL) contained 2 mM of the substrate and the appropriate amount of enzyme. The reaction was stopped by adding 0.4 mL of 400 mM Na2CO3.” left out

Test [3] deals with T3, α,α-Trehalase (porcine kidney) (Sus scrofa, UniProt I3LIR5).
T3 construct: purchased Sigma-Aldrich Co; host or cells: porcine kidney
T3 sequence (I3LIR5 24-583): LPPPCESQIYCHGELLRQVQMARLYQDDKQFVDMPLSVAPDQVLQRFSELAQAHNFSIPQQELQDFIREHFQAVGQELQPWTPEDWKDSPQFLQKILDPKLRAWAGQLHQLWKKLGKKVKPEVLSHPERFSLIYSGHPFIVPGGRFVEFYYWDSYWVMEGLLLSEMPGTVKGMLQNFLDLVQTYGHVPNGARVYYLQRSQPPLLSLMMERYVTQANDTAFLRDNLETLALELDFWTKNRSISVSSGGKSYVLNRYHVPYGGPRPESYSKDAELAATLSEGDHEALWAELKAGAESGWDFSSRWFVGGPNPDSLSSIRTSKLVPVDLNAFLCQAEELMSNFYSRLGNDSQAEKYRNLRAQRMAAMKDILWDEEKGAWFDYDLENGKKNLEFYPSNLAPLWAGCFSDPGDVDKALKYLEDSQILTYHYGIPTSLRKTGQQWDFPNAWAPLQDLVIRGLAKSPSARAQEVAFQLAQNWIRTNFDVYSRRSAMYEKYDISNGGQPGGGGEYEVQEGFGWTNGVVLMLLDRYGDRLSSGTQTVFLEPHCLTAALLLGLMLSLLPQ
Description: Glycosidase inhibition: α,α-trehalase (porcine kidney). Conditions: read-out: inhibition % at 1000 μM.
Text: as §1, with “After centrifugation (600 g; 10 min), 0.035 mL of the resulting reaction mixture were added to 2.1 mL of the Glucose CII-test Wako (Wako Pure Chemical Ind., Osaka, Japan).” left out, “The reaction mixture (0.2 mL) contained 2 mM of the substrate and the appropriate amount of enzyme. The reaction was stopped by adding 0.4 mL of 400 mM Na2CO3.” left out

Usually inhibition stands for the change of the read-out against control, counted positive when it falls. As for `CC[C@@H]1CN[C@H]2C[C@@H](O)[C@H](O)[C@@H](O)[C@H]12` [Compound 10, (3S,3aR,4S,5S,6R,7aS)-3-Ethyloctahydro-1H-indole-4,5,6-triol], the figures for the inhibition at 1000 µM in test [1], in test [2] and in test [3] were 7.5%, 0% and 0%, respectively.

For the compound `CC[C@H]1CN[C@H]2C[C@@H](O)[C@H](O)[C@@H](O)[C@H]12` [Compound 13, (3R,3aR,4S,5S,6R,7aS)-3-ethyloctahydro-1H-indole-4,5,6-triol], the inhibition at 1000 µM in test [1] was determined as 12.9%; in test [2] it was 21.7%; in test [3], 0%.

Source of the values: article PMC6631223, “Chain-Branched Polyhydroxylated Octahydro-1H-Indoles as Potential Leads against Lysosomal Storage Diseases” (Pharmaceuticals, 2019).
